Source: publication PMC9024893, “1,2,4-Trioxolane and 1,2,4,5-Tetraoxane Endoperoxides against Old-World Leishmania Parasites: In Vitro Activity and Mode of Action” (Pharmaceuticals, 2022)

How the values were obtained:
[1] = test system: L. infantum IMT151 promastigotes; test: Promastigotes susceptibility assay (MTT), L. infantum; assay type: cell-based; settings: Leishmania infantum; 48 h incubation, MTT; read-out: IC50 ± SD, L. infantum promastigotes
Description: (§1) Promastigote forms of strains of L. infantum (MHOM/PT/1988/IMT151) and L. donovani (MHOM/BD/2006/BD14) were cultured at 24 °C ± 1 °C in M199 medium (Sigma) supplemented with 20% foetal bovine serum (FBS, Sigma) and 1% penicillin-streptomycin (Sigma). L. infantum strain belongs to IHMT, Portugal cryobank collection and the L. donovani strain was kindly provided by Dr. Katrin Kuhls, Technical University of Applied Sciences Wildau, Germany. Promastigotes used for the experiments had 7 to 12 in vitro passages in culture after isolation from mice, in order to keep virulence, and were used when the stationary phase of growth was reached (day 5 to 6), corresponding to the highest promastigotes density.
(§2) For the determination of the antileishmanial activity and IC50, promastigotes of L. infantum and L. donovani were plated in 96-well flat bottom culture plates at a concentration of 5 × 10^6 parasites/mL and incubated with six serial concentrations of each compound (Table 3), in four replicates, including the control drugs, amphotericin B, miltefosine and pentamidine. One untreated control (parasites with M199 medium plus 0.5% DMSO as vehicle solution) and one blank (M199 medium alone) were also plated out in quadruplicate. After 48 h incubation at 24 °C ± 1 °C, the inhibitory activity of the compounds was evaluated using the MTT, as previously described, with an additional 4 h incubation at 36 °C. Results were expressed in terms of percentage of parasite viability relative to nontreated control and IC50 was calculated fitting the data as a non-linear regression with variable slope using a dose-response inhibitory model, in the GraphPad Prism V 8.0 program. Each compound was tested in three independent assays. […]

[2] = test system: L. donovani BD14 promastigotes; test: Promastigotes susceptibility assay (MTT), L. donovani; assay type: cell-based; settings: Leishmania donovani; 48 h incubation, MTT; read-out: IC50 ± SD, L. donovani promastigotes
Description: as §1, §2

[3] = test system: L. infantum promastigotes; test: Flow cytometry analysis of mitochondrial membrane potential (JC-1); assay type: cell-based, Leishmania infantum; settings: 24 h
Description: (§3) The L. infantum strain (MHOM/PT/1988/IMT151) was chosen for the cytometry analysis and promastigotes at a concentration of 1 × 10^7 parasites/mL were tested against the three compounds evaluated in the intracellular amastigotes assay (LC132, LC137 and LC138). Flow cytometry analysis were performed in a CytoFlex flow cytometer (Beckman Coulter), at an excitation wavelength of 488 nm (blue laser). Data acquisition were collected and registered using channels FL1 (flurescein isothiocyanate, FITC) with a BP filter (525 ± 40 nm) for Fluorescein and FL2 (IP) with a BP filter (570 ± 20 nm) for propidium iodide (PI) and 10,000 total events per sample were analysed using CytExpert v2.0.0.153 software. Samples were analysed in triplicates and two to three independent experiments were performed. Values are expressed as a percentage of cells for a given marker, relatively to the number of cells analysed ± standard error of mean (SEM).
Mitochondrial damage was evaluated through the analysis of the mitochondrial membrane potential with MitoProbe™ JC-1 Assay Kit for Flow Cytometry (Molecular Probes, Invitrogen). Treated L. infantum promastigotes were incubated with IC50 and 2 × IC50 of the tested compounds and amphotericin B for 24 h, at 24 °C ± 1 °C. […] Cells were analysed by flow cytometry. […]

[4] = test system: L. infantum promastigotes; test: Flow cytometry detection of reactive oxygen species (CM-H2DCFDA); assay type: cell-based, Leishmania infantum; settings: 2 × IC50, 5 h
Description: as §3
For the detection of reactive oxygen species (ROS), a cell permeable probe CM-H2DCFDA (5 µg/mL Molecular Probes, Invitrogen) was used. Briefly, promastigotes were incubated with IC50 and 2 × IC50 of the tested compounds and amphotericin B for 5 h and 24 h, at 24 °C. […] Parasites were resuspended in normal medium (M199 medium) and fluorescence was measured by flow cytometry (blue laser), and the signals registered in the FL1/FITC channel.

[5] = test system: L. infantum promastigotes; test: Promastigotes DNA fragmentation (agarose gel); assay type: cell-based, Leishmania infantum; settings: IC50 concentrations, 24 h
Description: 2 mM H2O2 was used as DNA damage inductor and non-treated cells were used as control. After centrifugation (10 min, 800× g) DNA was extracted using a commercial extraction kit (High Template DNA Preparation Kit, Roche, Germany), according to the manufacturer’s instructions.

IC50 [1] [µM]	IC50 [2] [µM]	Structure (SMILES)	population percentage of JC-1 aggregates ([3]; 2 × IC50 concentration) [%]	population percentage of JC-1 aggregates ([3]; IC50 concentration) [%]	ROS levels (FITC+), early phase of exposure [4]	genomic DNA fragmentation [5]
0.2	0.3	C[C@@H]1[C@H](O)[C@@H](C)/C=C/C=C/C=C/C=C/C=C/C=C/C=C/[C@H](O[C@@H]2O[C@H](C)[C@@H](O)[C@H](N)[C@@H]2O)C[C@@H]2O[C@](O)(C[C@@H](O)C[C@@H](O)[C@H](O)CC[C@@H](O)C[C@@H](O)CC(=O)O[C@H]1C)C[C@H](O)[C@H]2C(=O)O [AmB, amphotericin B, reference compound]	69.1	64.9	–	–
125 ± 1.6	240 ± 34.8	CCOC(=O)C1CCC2(CC1)OOC1(OO2)C2CC3CC(C2)CC1C3 (centres unmarked) [LC138]	–	–	slight increase	did not produce DNA fragmentation
